Results reported in patent US12391737B2, “Soluble NPY2 receptor agonists” (Boehringer Ingelheim International GmbH, priority 2020, dated 2025).
*1 amine or outer side, *2 acyl side, *3 side chain or, on linkers, in order; H or OH if unused. Where a SMILES comes first, the peptide text is derived from it. Side-chain parts run from the residue outwards. The star is where a group is joined. C18 diacid = O=C(O)CCCCCCCCCCCCCCCCC(=O)*; γGlu = O=C(O)[C@H](CCC(=O)[*:2])N[*:1]; Isovaleryl = CC(C)CC(=O)*; Ahx = NCCCCCC(=O)O

Assays:
[1] = target: T1, Human Neuropeptide Y2 Receptor (Homo sapiens, UniProt P49146); assay: Radioligand binding competition assay (RLB); conditions: Table 3, 125I-PYY(1-36) competition; read-out: Ki
T1 construct: purchased CHEMICON HTS066M
T1 sequence (P49146 1-381): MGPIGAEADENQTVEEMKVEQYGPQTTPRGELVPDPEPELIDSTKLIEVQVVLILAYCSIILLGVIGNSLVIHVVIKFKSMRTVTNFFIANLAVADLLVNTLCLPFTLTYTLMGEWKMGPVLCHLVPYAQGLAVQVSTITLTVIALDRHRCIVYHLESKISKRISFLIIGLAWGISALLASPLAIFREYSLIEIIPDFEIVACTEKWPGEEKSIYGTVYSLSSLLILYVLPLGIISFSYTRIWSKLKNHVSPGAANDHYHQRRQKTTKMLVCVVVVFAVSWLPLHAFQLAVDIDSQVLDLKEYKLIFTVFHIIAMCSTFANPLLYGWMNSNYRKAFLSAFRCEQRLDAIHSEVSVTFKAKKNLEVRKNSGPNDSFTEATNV
In short: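 IC50 values come from sigmoidal dose-response fits of scintillation counts after peptides competed for radioligand binding at receptor membranes (0.5 μg protein/well). Incubation ran 2 h at room temperature in HEPES buffer, pH 7.4, with Mg2+, Ca2+ and 0.2% ovalbumin.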

[2] = Solubility determination; conditions: for Sol6: pH 6; for Sol7: pH 7
In short: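 Sample: TFA-salt peptide at 10 mg/ml target in 0.1 M Na diphosphate, pH 6.4 or 7.0, shaken 2 h RT, filtered, diluted to 1 mg/ml.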

| Structure (SMILES) | Ki [1] | Sol6 [2] | Sol7 [2] |
| --- | --- | --- | --- |
| CC(C)CC(=O)N[C@@H](C)C(=O)N1CCC[C@H]1C(=O)N[C@@H](CCC(=O)O)C(=O)N[C@@H](CCCCNC(=O)CCCCCNC(=O)CC[C@H](NC(=O)CCCCCCCCCCCCCCCCC(=O)O)C(=O)O)C(=O)N1CCC[C@H]1C(=O)N[C@@H](CCC(=O)O)C(=O)N[C@@H](CCC(=O)O)C(=O)N1CCC[C@H]1C(=O)N[C@@H](C)C(=O)N[C@H](C(=O)N1CCC[C@H]1C(=O)N[C@@H](CCC(=O)O)C(=O)N[C@@H](CCC(=O)O)C(=O)N[C@@H](CC(C)C)C(=O)N[C@@H](CCC(N)=O)C(=O)N[C@@H](CCCNC(=N)N)C(=O)N[C@@H](Cc1ccc(O)cc1)C(=O)N[C@@H](Cc1ccc(O)cc1)C(=O)N[C@H](C(=O)N[C@@H](CO)C(=O)N[C@@H](CC(C)C)C(=O)N[C@@H](CCCNC(=N)N)C(=O)N[C@@H](Cc1c[nH]cn1)C(=O)N[C@@H](Cc1ccc(O)cc1)C(=O)N[C@@H](Cc1ccc(O)cc1)C(=O)N[C@@H](CC(N)=O)C(=O)N[C@@H](Cc1c[nH]c2ccccc12)C(=O)N[C@@H](CC(C)C)C(=O)N[C@H](C(=O)N[C@@H](CCCNC(=N)N)C(=O)N[C@@H](CCC(N)=O)C(=O)N[C@@H](CCCNC(=N)N)C(=O)N[C@@H](Cc1ccc(O)cc1)C(N)=O)[C@@H](C)O)C(C)C)[C@@H](C)O [Compound 42, N{alpha-4}-(3-methylbutanoyl)-N{epsilon-7}-(6-[(4S)-4-carboxy-4-(17-carboxyheptadecanamido)butanamido]hexanoyl)[4A,7K,9E,11P,13T,18Q,22V,28Y,30W,31L]-hPYY(4-36)] | 1.98 nM | 9.8 mg/mL | 9.9 mg/mL |
| CC(C)CC(=O)N[C@@H](C)C(=O)N1CCC[C@H]1C(=O)N[C@@H](C)C(=O)N[C@@H](CCCCNC(=O)CCCCCNC(=O)CC[C@H](NC(=O)CCCCCCCCCCCCCCCCC(=O)O)C(=O)O)C(=O)N1CCC[C@H]1C(=O)N[C@@H](CCC(=O)O)C(=O)N[C@@H](C)C(=O)N[C@@H](C)C(=O)N[C@@H](C)C(=O)N[C@@H](CCC(=O)O)C(=O)N1CCC[C@H]1C(=O)N[C@@H](CCC(=O)O)C(=O)N[C@@H](CCC(=O)O)C(=O)N[C@@H](CC(C)C)C(=O)N[C@@H](CCC(N)=O)C(=O)N[C@@H](CCCNC(=N)N)C(=O)N[C@@H](Cc1ccc(O)cc1)C(=O)N[C@@H](Cc1ccc(O)cc1)C(=O)N[C@H](C(=O)N[C@@H](CO)C(=O)N[C@@H](CC(C)C)C(=O)N[C@@H](CCCNC(=N)N)C(=O)N[C@@H](Cc1c[nH]cn1)C(=O)N[C@@H](Cc1ccc(O)cc1)C(=O)N[C@@H](Cc1ccc(O)cc1)C(=O)N[C@@H](CC(N)=O)C(=O)N[C@@H](Cc1c[nH]c2ccccc12)C(=O)N[C@@H](CC(C)C)C(=O)N[C@H](C(=O)N[C@@H](CCCNC(=N)N)C(=O)N[C@@H](CCC(N)=O)C(=O)N[C@@H](CCCNC(=N)N)C(=O)N[C@@H](Cc1ccc(O)cc1)C(N)=O)[C@@H](C)O)C(C)C [Compound 43, N{alpha-4}-(3-methylbutanoyl)-N{epsilon-7}-(6-[(4S)-4-carboxy-4-(17-carboxyheptadecanamido)butanamido]hexanoyl)[4A,6A,7K,9E,10A,11A,13E,18Q,22V,28Y,30W,31L]-hPYY(4-36)] (Isovaleryl-APAK([Ahx-γGlu-C18 diacid])PEAAAEPEELQRYYVSLRHYYNWLTRQRY-NH2) | 2.49 nM | 0.0 mg/mL | 0.0 mg/mL |
| CC(C)CC(=O)N[C@@H](C)C(=O)N1CCC[C@H]1C(=O)N[C@@H](CCC(=O)O)C(=O)N[C@@H](CCCCNC(=O)CCCCCNC(=O)CC[C@H](NC(=O)CCCCCCCCCCCCCCCCC(=O)O)C(=O)O)C(=O)N1CCC[C@H]1C(=O)N[C@@H](CCC(=O)O)C(=O)N[C@@H](CCC(=O)O)C(=O)N[C@@H](CC(=O)O)C(=O)N[C@@H](C)C(=O)N[C@H](C(=O)N1CCC[C@H]1C(=O)N[C@@H](CCC(=O)O)C(=O)N[C@@H](CCC(=O)O)C(=O)N[C@@H](CC(C)C)C(=O)N[C@@H](CCC(N)=O)C(=O)N[C@@H](CCCNC(=N)N)C(=O)N[C@@H](Cc1ccc(O)cc1)C(=O)N[C@@H](Cc1ccc(O)cc1)C(=O)N[C@H](C(=O)NCC(=O)N[C@@H](CC(C)C)C(=O)N[C@@H](CCCNC(=N)N)C(=O)N[C@@H](Cc1c[nH]cn1)C(=O)N[C@@H](Cc1ccc(O)cc1)C(=O)N[C@@H](Cc1ccc(O)cc1)C(=O)N[C@@H](CC(N)=O)C(=O)N[C@@H](Cc1c[nH]c2ccccc12)C(=O)N[C@@H](CC(C)C)C(=O)N[C@H](C(=O)N[C@@H](CCCNC(=N)N)C(=O)N[C@@H](CCC(N)=O)C(=O)N[C@@H](CCCNC(=N)N)C(=O)N[C@@H](Cc1ccc(O)cc1)C(N)=O)[C@@H](C)O)C(C)C)[C@@H](C)O [Compound 44, N{alpha-4}-(3-methylbutanoyl)-N{epsilon-7}-(6-[(4S)-4-carboxy-4-(17-carboxyheptadecanamido)butanamido]hexanoyl)[4A,7K,9E,13T,18Q,22V,23G,28Y,30W,31L]-hPYY(4-36)] | 5.86 nM | 9.7 mg/mL | 10.0 mg/mL |
| CC[C@H](C)[C@H](NC(=O)[C@H](CCC(=O)O)NC(=O)[C@H](CCC(=O)O)NC(=O)[C@@H]1CCCN1C(=O)[C@H](CCCCNC(=O)CCCCCNC(=O)CC[C@H](NC(=O)CCCCCCCCCCCCCCCCC(=O)O)C(=O)O)NC(=O)[C@H](CCC(=O)O)NC(=O)[C@@H]1CCCN1C(=O)[C@H](C)NC(=O)CC(C)C)C(=O)N[C@@H](C)C(=O)N[C@H](C(=O)N1CCC[C@H]1C(=O)N[C@@H](CCC(=O)O)C(=O)N[C@@H](CCC(=O)O)C(=O)N[C@@H](CC(C)C)C(=O)N[C@@H](CCC(N)=O)C(=O)N[C@@H](CCCNC(=N)N)C(=O)N[C@@H](Cc1ccc(O)cc1)C(=O)N[C@@H](Cc1ccc(O)cc1)C(=O)N[C@H](C(=O)N[C@@H](CO)C(=O)N[C@@H](CC(C)C)C(=O)N[C@@H](CCCNC(=N)N)C(=O)N[C@@H](Cc1c[nH]cn1)C(=O)N[C@@H](Cc1ccc(O)cc1)C(=O)N[C@@H](Cc1ccc(O)cc1)C(=O)N[C@@H](CC(N)=O)C(=O)N[C@@H](Cc1c[nH]c2ccccc12)C(=O)N[C@@H](CC(C)C)C(=O)N[C@H](C(=O)N[C@@H](CCCNC(=N)N)C(=O)N[C@@H](CCC(N)=O)C(=O)N[C@@H](CCCNC(=N)N)C(=O)N[C@@H](Cc1ccc(O)cc1)C(N)=O)[C@@H](C)O)C(C)C)[C@@H](C)O [Compound 45, N{alpha-4}-(3-methylbutanoyl)-N{epsilon-7}-(6-[(4S)-4-carboxy-4-(17-carboxyheptadecanamido)butanamido]hexanoyl)-[4A,7K,9E,11I,13T,18Q,22V,28Y,30W,31L]-hPYY(4-36)] | 6.17 nM | >10.0 mg/mL | >10.0 mg/mL |
